Measured values from patent US20100310688A1, “ACACIA EXTRACTS AND THEIR COMPOUNDS ON INHIBITION OF XANTHINE OXIDASE” (NATIONAL TAIWAN UNIVERSITY, priority 2009, published 2010).

Legend:
xanthine oxidase [1] = biological target: T1, xanthine oxidase (Homo sapiens, UniProt P47989); experiment: Inhibition mode determination by Lineweaver-Burk plot; format: biochemical; settings: 0.3, 0.4 or 0.6 mM substrate
Protocol: 798 μL of 0.1 unit xanthine oxidase in 200 mM sodium pyrophosphate/sodium chloride buffer (soudium pyrophosphate/HCl, pH 7.5) were mixed with 2 μL of DMSO dissolved melanoxetin, 7,8,3′,4′-tetrahydroxyflavon or okanin in 96-well plate at 37° C. for 5 minutes. 0.3, 0.4, or 0.6 mM substrate dissolved in double distilled water were added to start the reaction. OD 295 nm absorbance was detected every one minute by ELISA reader for total eight minutes at ambient temperature. Excel software was used for analyzing the result of enzyme.

xanthine oxidase [2] = biological target: T1, xanthine oxidase; experiment: Xanthine oxidase inhibition assay (uric acid formation, OD 295 nm); format: biochemical; settings: for EC50: isolated major compounds, read-out: EC50 of inhibitory activity on xanthine oxidase; for xanthine oxidase inhibitory activity as fold of allopurinol: relative to allopurinol EC50
Protocol: Various parts of Acacia confusa were cold extracted by ethanol for 3 times, 7 days for each time. The extraction solution was vacuum filtered with Whatman #1 filter paper to remove impurities. The filtered extraction solution was concentrated by rotatory vacuum evaporator and lyophilized by a lyophilizer for xanthine oxidase inhibition assay. This assay was detecting xanthine derived uric acid, which was catalyzed by xanthine oxidase, at specific absorbance of UV 295 nm. Therefore, 2 μL of various concentrations of sample were mixed with 798 μL of sodium pyrophosphate buffer (pH 7.5) and 0.1 U of xanthine oxidase for 5 min at 37° C. 200 μL of 0.6 mM xanthine were added and vortex to mix thoroughly, and measured OD 295 nm absorbance by UV/visible light spectrophotometer. Finally, xanthine oxidase inhibitory rate of extracts (%) was calculated.

T1 sequence (P47989 whole entry, species assumed): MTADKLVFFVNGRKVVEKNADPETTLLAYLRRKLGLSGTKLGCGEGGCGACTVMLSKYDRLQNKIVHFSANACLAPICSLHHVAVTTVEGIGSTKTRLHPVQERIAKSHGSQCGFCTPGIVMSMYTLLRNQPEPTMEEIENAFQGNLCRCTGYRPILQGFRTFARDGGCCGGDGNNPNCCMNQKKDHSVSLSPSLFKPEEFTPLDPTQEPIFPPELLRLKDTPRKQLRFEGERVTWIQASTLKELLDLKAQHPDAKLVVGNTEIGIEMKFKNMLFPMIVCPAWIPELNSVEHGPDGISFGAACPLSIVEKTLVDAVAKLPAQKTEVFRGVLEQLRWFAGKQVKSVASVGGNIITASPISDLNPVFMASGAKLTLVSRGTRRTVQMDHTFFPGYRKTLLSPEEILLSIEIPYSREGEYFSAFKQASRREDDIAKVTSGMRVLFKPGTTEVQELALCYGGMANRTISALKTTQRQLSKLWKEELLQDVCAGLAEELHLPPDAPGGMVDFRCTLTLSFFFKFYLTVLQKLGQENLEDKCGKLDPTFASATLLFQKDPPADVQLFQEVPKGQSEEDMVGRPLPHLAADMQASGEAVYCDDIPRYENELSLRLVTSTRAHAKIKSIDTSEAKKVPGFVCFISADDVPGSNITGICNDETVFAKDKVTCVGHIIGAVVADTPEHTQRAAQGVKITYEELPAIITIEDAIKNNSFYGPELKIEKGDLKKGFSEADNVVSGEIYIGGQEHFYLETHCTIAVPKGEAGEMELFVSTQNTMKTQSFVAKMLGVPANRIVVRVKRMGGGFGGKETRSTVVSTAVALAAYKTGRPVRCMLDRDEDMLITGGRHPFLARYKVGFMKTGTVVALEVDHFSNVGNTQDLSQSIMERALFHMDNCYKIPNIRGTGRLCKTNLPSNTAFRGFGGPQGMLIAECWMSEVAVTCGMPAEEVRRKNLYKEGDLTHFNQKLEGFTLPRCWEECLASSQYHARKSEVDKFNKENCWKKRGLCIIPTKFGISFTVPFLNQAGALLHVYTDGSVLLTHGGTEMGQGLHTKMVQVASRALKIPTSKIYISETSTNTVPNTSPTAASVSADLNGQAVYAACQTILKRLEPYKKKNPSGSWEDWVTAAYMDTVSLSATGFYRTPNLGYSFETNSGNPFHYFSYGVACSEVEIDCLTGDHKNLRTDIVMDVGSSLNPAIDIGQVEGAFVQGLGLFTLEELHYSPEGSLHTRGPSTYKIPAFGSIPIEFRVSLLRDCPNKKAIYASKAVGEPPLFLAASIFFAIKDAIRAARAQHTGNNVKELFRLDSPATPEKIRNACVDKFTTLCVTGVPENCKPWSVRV

SMILES	inhibition mode on xanthine oxidase (Lineweaver-Burk plot) (xanthine oxidase [1])	inhibition at 5 µg/mL (xanthine oxidase [2]; at concentration of 5 μg/mL)	EC50 (xanthine oxidase [2])	xanthine oxidase inhibitory activity as fold of allopurinol (xanthine oxidase [2])
Oc1ncnc2[nH]ncc12 [allopurinol, reference compound]	competitive inhibition mode	78%	–	–
O=c1cc(-c2ccc(O)c(O)c2)oc2c(O)c(O)ccc12 [7,8,3′,4′-tetrahydroxyflavon]	competitive inhibition mode	–	–	–
O=c1c(O)c(-c2ccc(O)c(O)c2)oc2c(O)c(O)ccc12 [melanoxetin, 3,7,8,3′,4′-pentahydroxyflavone]	competitive inhibition mode	–	274 nM	17 fold
O=C(/C=C/c1ccc(O)c(O)c1)c1ccc(O)c(O)c1O [okanin, 3,4,2′,3′,4′-pentahydroxy trans-chalcone]	non-competitive inhibition mode	–	74 nM	63 fold
